From patent US20230096897A1, “Lymphocyte Population and Methods for Producing Same” (AVM Biotechnology, LLC, priority 2020, published 2023)

Legend:
AVM-NKT cells = experiment: Flow cytometry of osteoarthritis patients treated with dexamethasone; type: in vivo, human; settings: 3-6 mg/kg; 48 hours post treatment; one of four patients
[1] = system: human CD3high, CD45dim, CD56+ cells; experiment: Human AVM-NKT cells in BRGSF humanized mice; type: in vivo, mouse; settings: oral HED 18-45 mg/kg; 24-48 hours later
Procedure: BRGSF humanized mice on a Balb/c background from Genoway generated by transplanting human umbilical cord blood CD34+ stem cells into irradiated mice that lack mouse B and T lymphocytes and NK cells but have a functional mouse complement system are orally dosed with HED 18-45 mg/kg DSP. 24-48 hours later human CD3high, and/or human CD45dim, and/or human CD56+ cells can be observed to be about 0.2-3% of total splenocytes by flow cytometry.

[2] = system: human CD3high, CD45dim, CD56+ cells; experiment: Human AVM-NKT cells in HuCD34-NCG mice; type: in vivo, mouse; settings: oral HED 18-45 mg/kg; 24-48 hours later
From the text: The HuCD34-NCG mouse from Charles River is a study-ready mouse model with a human-like immune system, created by adoptive transfer of CD34+ stem cells. HuCD34-NCG mice are an ideal in vivo platform to evaluate the effectiveness of compounds modulating the human immune system. The lack, or late onset, of graft-versus-host disease (GvHD) in humanized mice make them ideal for long-term studies.
NCG mice are humanized by adoptive transfer using human umbilical cord blood-derived CD34+ stem cells, following myeloablation treatment. NCG mice from 4 donors (n=2 per donor) are orally dosed with HED 18-45 mg/kg DSP. 24-48 hours later human CD3high, and/or human CD45dim, and/or human CD56+ cells can be observed to be about 0.2-3% of total splenocytes by flow cytometry.

[3] = system: human CD3high, CD45dim, CD56+ cells; experiment: Human AVM-NKT cells in huNOG EXL mice; type: in vivo, mouse; settings: oral HED 18-45 mg/kg; 24-48 hours later
Procedure: huNOG EXL from Taconic have an average of 54% of CD45 cells positive for human CD45. Six huNOG EXL humanized immune system mice from 3 donors (n=2 per donor) are orally dosed with HED 18-45 mg/kg DSP. 24-48 hours later human CD3high, and/or human CD45dim, and/or human CD56+ cells can be observed to be about 0.2-3% of total splenocytes by flow cytometry.

[4] = system: CD3high, CD45dim, CD49b+ cells; experiment: Venetoclax pre-treatment before high dose DSP in female NOD mice; type: in vivo, mouse; settings: 48 hours after HED 30 mg/kg DSP alone
Procedure: Female NOD mice of 10 weeks of age are treated with 12.5 mg/kg up to 50 mg/kg venetoclax 6-18 hours before oral gavage of a HED 30 mg/kg DSP dose. […] CD3high, CD45dim, CD49b+ cells are reduced from—70 cells/microliter with DSP alone to—40 cells/microliter with 12.5 mg/kg venetoclax pretreatment, to—20 cells/microliter with 25 mg/kg venetoclax pretreatment, to—15 cells/microliter with 50 mg/kg venetoclax pretreatment. Venetoclax is a Bcl-2 inhibitor.

Substance: dexamethasone sodium phosphate [DSP]
- Cells corresponding to AVM-NKT cells (CD45 dim, CD56 very bright) in blood (AVM-NKT cells): identified
- human CD3high, and/or CD45dim, and/or CD56+ cells as share of total splenocytes [1]: 0.2-3%
- human CD3high, and/or CD45dim, and/or CD56+ cells as share of total splenocytes [2]: 0.2-3%
- human CD3high, and/or CD45dim, and/or CD56+ cells as share of total splenocytes [3]: 0.2-3%
- CD3high, CD45dim, CD49b+ cells mobilized into the blood [4]: 70 cells/microliter
